Source: patent US5667809A, “Continuous fluorochemical microdispersions for the delivery of lipophilic pharmaceutical agents” (priority 1995, dated 1997)
Where two headings read alike, the source gives them in different places.

Legend:
E. coli = experiment: Antibacterial activity, E. coli titer in wells with human lung epithelial cells; format: cell-based; details: saline
Method: The experimental procedure is followed:
a). Prepare a monolayer of normal human lung epithelial cells.
b). Add 60 μL of E. coli culture into the well with lung epithelial cells on the 96-well plate.
c). […] Incubate at 37° C. overnight.
d). Aspirate the cultured mixture and diluted with LB media (1:2).
e). Take 20 μL of diluted mixture and plate on an LB plate for an initial titration of E. coli. The E. coli plates were incubated at 37° C. overnight.
f). Various dilutions were made according to the initial titer of each mixture so as to determine the accurate titer in each well. A duplicated set of tests was conducted for each treatment.
g). The titer of E. coli was calculated by multiplying the number of colonies grown on each plate by a dilution factor for each well tested.

[1] = cited from earlier work
[2] = intravenous, cited from earlier work

O=C(O)c1cn(C2CC2)c2cc(N3CCNCC3)c(F)cc2c1=O [Ciprofloxacin]
E. coli titer (E. coli; 0.05 mg/mL): 0 colonies/ml | E. coli titer (E. coli; 0.1 mg/mL): 0 colonies/ml | E. coli titer (E. coli; 0.6 mg/mL): 0 colonies/ml

Clc1cccc(Cl)c1N=C1NCCN1 [^3 H-clonidine, clonidine]
Log Po/w ([1]; octanol/water): 1.4

c1ccc2cc3ccccc3cc2c1 [^14 C-anthracene, anthracene]
Log Po/w ([1]; octanol/water): 4.5

CCCCC(CC)COC(=O)c1ccc(N(C)C)cc1 (stereo not drawn) [^14 C-padimate-o, padimate-o]
Log Po/w ([1]; octanol/water): 6.6

CCCCCC(=O)OCCOCn1cnc2c(=O)[nH]c(N)nc21 [hexanoyl acyclovir]
Log Po/w ([1]; pH 7.4): 0.93 | Octanol/water partition coefficient Po/w ([1]; pH 7.4): 8.58

CC(=O)O[C@H]1C(=O)[C@@]2(C)[C@H]([C@H](OC(=O)c3ccccc3)[C@]3(O)C[C@H](OC(=O)[C@H](O)[C@@H](NC(=O)c4ccccc4)c4ccccc4)C(C)=C1C3(C)C)[C@]1(OC(C)=O)CO[C@@H]1C[C@@H]2O [paclitaxel]
systemic toxicities [2]: cardiac toxicity and neurotoxicity | systemic toxicities ([2]; listed as Taxol): high systemic toxicities

CC(C)=CCN1CCC2(C)c3cc(O)ccc3CC1C2C (stereo not drawn) [pentazocin]
Octanol/water partition coefficient Po/w ([1]; in octanol/pH 7.4 isotonic phosphate buffer at 37° C. (footnote a on the Log value)): 150

CC(CN1c2ccccc2Sc2ccccc21)N(C)C (stereo not drawn) [promethazine]
Log Po/w ([1]; in octanol/pH 7.4 isotonic phosphate buffer at 37° C.): 3.10

CCCCNc1ccc(C(=O)OCCN(C)C)cc1 [tetracaine]
Log Po/w ([1]; octanol/water): 1.90

CCCCC(=O)OCCOCn1cnc2c(=O)[nH]c(N)nc21 [valeryl acyclovir]
Log Po/w ([1]; pH 7.4): 0.30 | Octanol/water partition coefficient Po/w ([1]; pH 7.4): 2.01
